{
  "source": "patent US8758731B2",
  "about": "“Skin lightening by topical application of 1-hydroxyl 3,5-bis(4′hydroxyl styryl)benzene” (Johnson & Johnson Consumer Companies, Inc., priority 2012, dated 2014)",
  "key": {"[1]": {"system": "Mushroom tyrosinase", "test": "Tyrosinase inhibition test (mushroom tyrosinase, L-dopa, OD 492 nm)", "type": "biochemical", "conditions": "10 mM L-dopa, 37° C., 30 min, duplicate", "description": "Ultraviolet (UV) radiation from the sun is the most important external stimulus for melanin formation leading to skin darkening. Reducing melanin formation in the skin may be achieved by inhibiting multiple steps of the melanin biogenesis process. Tyrosinase is the key regulatory enzyme of melanogenesis. Agents that inhibit tyrosinase will reduce melanin synthesis.\n1-Hydroxyl 3,5-bis(4′hydroxyl styryl)benzene (0.0001, 0.001, and 0.01% w/v) was tested for tyrosinase inhibition as follows.\nMushroom tyrosinase samples (Sigma, T7755, 10 U/reaction) were treated with the samples of 1-hydroxyl 3,5-bis(4′hydroxyl styryl)benzene and control samples. Reaction was initiated by addition of 10 mM L-dopa (Research Organics, #2111D) at 37° C. Tyrosinase activity was measured by recording light absorption (optical density) at 492 nm after 30 min for both control samples (no exposure to test compound) and test samples that were exposed to the test compound.\nPercent Inhibition of Tyrosinase was related to the reduction in absorption at 492 nm (relative to the control) by the following formula: Percent Inhibition of Tyrosinase=[Tcontrol−Tsample/Tcontrol)]*100 where Tcontrol is the tyrosinase activity of the control and Tsample is the tyrosinase activity in the presence of test compound. Samples were tested in duplicate and Percent Inhibition of Tyrosinase was averaged and standard deviation was reported."}, "[2]": {"system": "murine melanoma B16(F10) cells", "test": "Inhibition of UV-induced Melanogenesis test", "type": "cell-based", "conditions": "for Percent inhibition of UV-induced melanogenesis (mean ± SD): B16(F10), UVB 200 mJ/cm^2, 24 h post UVB", "description": "One or more samples of B16(F10) cells were prepared and each pre-treated with a test sample followed by UVB exposure as described below. Upon treatment, UVB stimulated melanogenesis in the cells and test compounds were evaluated based on their ability to inhibit or slow down the rate of melanogenesis. The cells were lysed for protein measurement at 595 nm and melanin content at 470 nm. The potency of the test compounds were determined by comparing the % inhibition achieved by the test compounds against the treated control.\nOn a first day, murine melanoma B16(F10) cells were seeded in 60 mm plates with a density of ˜1 million cells per plate and incubated for […] at 37° C., 5% CO2. On day 2, the cells with a confluency rate of 90-100% were treated with test compound at a predetermined concentration (e.g. 25 mg/mL) for two hours (for test compound samples only) followed by exposure to UVB 200 mJ/cm^2 (for test samples and treated control). The cells were harvested on day 3 (24 h post UVB irradiation for test samples and treated control) and lysed in protein lysis buffer (50 mM Tris, pH 8, 2 mM EDTA, 150 mM NaCl, and 1% TRITON X 100—a nonionic surfactant purchased from BioRad Cat.#: 161-0407), and centrifuged.\nThe resulting supernatant was mixed well with a protein dye assay (Bio-rad protein assay reagent) and a spectrophotometer (Molecular Devices VERSAmax) was used to determine the optical density (OD) of the sample at 595 nm, which was recorded as the “protein assay OD.” The cell pellet remaining after removal of the supernatant was dissolved in alkaline DMSO buffer, and the resulting solution was similarly tested using a spectrophotometer for melanin absorbance assay at 470 nm. The absorbance was recorded as the “melanin assay OD.”\nControl samples of B16(F10) murine melanoma cells were prepared and harvested as indicated above, but without addition of any test sample and without exposure to UVB (untreated control). Other samples were prepared and harvested as indicated above, but without addition of test sample and exposed to UVB as described below (treated control).\nThree samples each of the untreated control, treated control, and each test sample were made and the Melanin OD and Protein OD measured for each. The normalized melanin for each untreated control (3 samples), treated control (3 samples) and test sample (3 samples for each test compound) was calculated via the following equation: Normalized Melanin=melanin assay OD/protein assay OD. The averages of the Normalized Melanin of the untreated controls and treated controls were calculated (sum of the three calculated values/3).\nThe Induction value of the Control (which can be thought of as the UV-induced increase in melanin, without the benefit of any test sample to reduce melanogensis) was determined by subtracting the average Normalized Melanin of untreated control from the average Normalized Melanin of treated control. Similarly, the Induction value of each test sample (which can be thought of as the amount of additional melanin over and above the baseline of the sample not treated with UV) was then calculated by subtracting average Normalized Melanin of untreated control from the Normalized Melanin of the test sample. The Percent Inhibition for each test sample was then calculated via the equation: Percent Inhibition=100×[(Induction value of Control−Induction value with Test Sample)/Induction value of Control].\nThe average Percent Inhibition was calculated as the sum of the three resulting Inhibition % values for each test sample divided by three."}, "[3]": {"system": "MelanoDerm skin epidermal equivalent tissues (NHEK and NHM)", "test": "Inhibition of pigmentation in skin epidermal equivalent tissues (MatTek MelanoDerm MEL-300-B)", "type": "cell-based, human", "conditions": "measured day 9, vs vehicle-treated control", "description": "Skin epidermal equivalent tissues obtained from MatTek's MelanoDerm™ System were used as follows. MatTek's MelanoDerm™ System consists of normal, human-derived epidermal keratinocytes (NHEK) and melanocytes (NHM) which have been cultured to form a multilayered, highly differentiated model of the human epidermis. Specifically, MEL-300-B tissues, each 9 mm in diameter were used in the following tests.\n1-Hydroxyl 3,5-bis(4′hydroxyl styryl)benzene and its piperazine salt were prepared in an appropriate vehicle and applied topically to the skin model daily. The experiment lasted for eight days. Measurement was taken on day 9.\nThe Degree of Lightness for each skin model tissue (L-Value) was measured using a spectrophotometer (Konica Minolta CM-2600d). The ΔL (degree of lightness as compared to vehicle-treated control) for each test sample was calculated using following formula: ΔL=L-value of treated sample−L-value of control sample"}, "[4]": {"system": "murine melanoma B16(F10) cells", "test": "Inhibition of UV-induced Melanogenesis test", "type": "cell-based", "conditions": "0.0001%; average of S1 and S2"}, "[5]": {"conditions": "0.5% topically daily for eight days"}},
  "note": "“And” between values parts separate entries of the source, which are not always exact repeats. Identical values can stand only once.",
  "data": [
    {"compound": "1-hydroxyl 3,5-bis(4′hydroxyl styryl)benzene - Piperazine salt", "values": [
      {"measurement": "Percent Inhibition of Tyrosinase activity (mean ± standard deviation)", "setting": "[1]; 0.0001% w/v test compound", "value": "2.03 ± 3.94", "unit": "%"},
      {"measurement": "Percent Inhibition of Tyrosinase activity (mean ± standard deviation)", "setting": "[1]; 0.001% w/v test compound", "value": "11.52 ± 3.16", "unit": "%"},
      {"measurement": "Percent Inhibition of Tyrosinase activity (mean ± standard deviation)", "setting": "[1]; 0.01% w/v test compound", "value": "16.64 ± 2.76", "unit": "%"},
      {"measurement": "Percent inhibition of UV-induced melanogenesis (mean ± SD)", "setting": "[2]; 0.00001% test compound", "value": "13.93 ± 11.33", "unit": "%"},
      {"measurement": "Percent inhibition of UV-induced melanogenesis (mean ± SD)", "setting": "[2]; 0.00005% test compound", "value": "33.52 ± 1.54", "unit": "%"},
      {"measurement": "Percent inhibition of UV-induced melanogenesis (mean ± SD)", "setting": "[2]; 0.0001% test compound", "value": "55.70 ± 4.44", "unit": "%"},
      {"measurement": "Degree of Lightness (ΔL)", "setting": "[3]; 0.1% topically daily for eight days", "value": "1.46 ± 0.71"},
      {"measurement": "Degree of Lightness (ΔL)", "setting": "[3]; 0.25% topically daily for eight days", "value": "2.83 ± 0.41"},
      {"measurement": "Degree of Lightness (ΔL)", "setting": "[3]; [5]", "value": "4.60 ± 0.61"}
    ]},
    {"compound": "Oc1ccc(/C=C/c2cc(O)cc(/C=C/c3ccc(O)cc3)c2)cc1", "note": "[1-Hydroxyl 3,5-bis(4′hydroxylstyryl)benzene]", "values": [
      {"measurement": "Percent Inhibition of Tyrosinase activity (mean ± standard deviation)", "setting": "[1]; 0.0001% w/v test compound", "value": "3.3 ± 1.95", "unit": "%"},
      {"measurement": "Percent Inhibition of Tyrosinase activity (mean ± standard deviation)", "setting": "[1]; 0.001% w/v test compound", "value": "8.21 ± 1.27", "unit": "%"},
      {"measurement": "Percent Inhibition of Tyrosinase activity (mean ± standard deviation)", "setting": "[1]; 0.01% w/v test compound", "value": "11.84 ± 3.22", "unit": "%"},
      {"measurement": "Percent inhibition of UV-induced melanogenesis (mean ± SD)", "setting": "[2]; 0.00001% test compound", "value": "18.93 ± 5.92", "unit": "%"},
      {"measurement": "Percent inhibition of UV-induced melanogenesis (mean ± SD)", "setting": "[2]; 0.00005% test compound", "value": "33.27 ± 4.39", "unit": "%"},
      {"measurement": "Percent inhibition of UV-induced melanogenesis (mean ± SD)", "setting": "[2]; 0.0001% test compound", "value": "40.49 ± 2.04", "unit": "%"},
      {"measurement": "Induction value with Test sample", "setting": "[2]; 0.0001%, single test samples S1, S2, Normalized Melanin minus untreated control 0.122, listed as 1-hydroxyl 3,5-bis(4′hydroxyl styryl)benzene—Free Phenol", "value": "0.19 − 0.122 = 0.068 and 0.187 − 0.122 = 0.065"},
      {"measurement": "Normalized Melanin value (melanin assay OD/protein assay OD)", "setting": "[2]; 0.0001%, single test samples S1, S2, listed as 1-hydroxyl 3,5-bis(4′hydroxyl styryl)benzene—Free Phenol", "value": "0.19 (S1) and 0.187 (S2)"},
      {"measurement": "Degree of Lightness (ΔL)", "setting": "[3]; [5]", "value": "4.23 ± 0.64"},
      {"measurement": "Percent Inhibition for Test sample (Ave)", "setting": "[4]", "value": "Ave = (39.05 + 41.93)/2 = 40.49%"}
    ]}
  ]
}
